From patent US10538534B2 (Colorado State University Research Foundation, priority 2015, dated 2020) come the findings set out here.

Where two headings read alike, the source gives them in different places.

A short description of data set [1]: Solubility in solvents. The procedure:
Trityl thiol was dissolved in 0.6 mL of DCM and cooled to 0° C. TFA (30 μL) and iPr3SiH (2.0 μL, 10 μmol) were added to the solution at 0° C. The bath was removed and the reaction was allowed to stir at room temperature for 1 h. Solvent was removed by argon flow and the residue 14 is taken crude for biological evaluation.

The subject of data set [2] is NOTCH1 mutated T-ALL cells (ALL/SIL). The data set can be described thus: ATP-based cell viability assay (CellTiter-Glo) in T-ALL cells. The note with it: ALL/SIL, 72, 144, 216 hours, 10 μM to 0.078 μM, FIGS. 14-16. The procedure: (§1) To test the hypothesis that largazole folate-conjugated small molecules target T-ALL, dose-ranging ATP content assays were performed. […] Next, an ATP-based assay (CellTiter-Glo, Promega®) was used to calculate the half-maximal inhibitory concentration (IC50) of cell viability. Graphs were plotted as a fraction of cells alive (y-axis) using Prism GraphPad 6 software and drug doses expressed as Log [μM] (x-axis).

Data set [3] deals with NOTCH1 mutated T-ALL cells (DND41). The data set is described as above. Particulars: DND41, 72, 144, 216 hours, 10 μM to 0.078 μM, FIGS. 11-13. As for the experimental part: as §1
For data set [4], the system named is Class I HDAC. Put plainly: HDAC biochemical selectivity profiling. The note with it: FIG. 1B, versus free Largazole-thiol.
The subject of data set [5] is HDACs1, 2 & 3. Put plainly: Affinity precipitation from HeLa Nuclear Extract with streptavidin beads, immunoblot. It is filed as binding. Particulars: 1 μM in 200 μL HeLa Nuclear Extract, 16 hr incubation, FIG. 1C. The procedure:
1 μM Largazole-Btn (54) in 200 μL of HeLa Nuclear Extract […] of streptavidin beads added after 16 hr incubation with compound.
For orientation: In western blotting, separated proteins are transferred to a membrane and probed.

Data set [6] deals with HDAC1 (Homo sapiens, UniProt Q13547). Put plainly: Biochemical profiling for HDACi activity, miniaturized assay platform (HDAC1-9).
Sequence of HDAC1 (Q13547 whole entry): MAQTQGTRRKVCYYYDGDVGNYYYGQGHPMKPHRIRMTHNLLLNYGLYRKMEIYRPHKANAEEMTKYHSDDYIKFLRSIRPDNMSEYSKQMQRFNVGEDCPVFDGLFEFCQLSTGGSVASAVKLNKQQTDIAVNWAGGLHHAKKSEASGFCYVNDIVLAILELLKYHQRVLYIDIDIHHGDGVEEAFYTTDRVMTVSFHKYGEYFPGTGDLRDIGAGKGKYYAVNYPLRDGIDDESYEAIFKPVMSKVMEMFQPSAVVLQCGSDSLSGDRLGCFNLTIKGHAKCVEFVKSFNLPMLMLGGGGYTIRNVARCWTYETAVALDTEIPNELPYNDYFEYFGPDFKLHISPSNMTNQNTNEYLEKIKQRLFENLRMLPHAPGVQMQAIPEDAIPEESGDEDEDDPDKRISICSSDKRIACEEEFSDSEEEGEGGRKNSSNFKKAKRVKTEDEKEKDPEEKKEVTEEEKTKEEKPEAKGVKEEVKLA
The target of data set [7] is HDAC2 (Homo sapiens, UniProt Q92769). Described as above.
Sequence of HDAC2 (Q92769 whole entry): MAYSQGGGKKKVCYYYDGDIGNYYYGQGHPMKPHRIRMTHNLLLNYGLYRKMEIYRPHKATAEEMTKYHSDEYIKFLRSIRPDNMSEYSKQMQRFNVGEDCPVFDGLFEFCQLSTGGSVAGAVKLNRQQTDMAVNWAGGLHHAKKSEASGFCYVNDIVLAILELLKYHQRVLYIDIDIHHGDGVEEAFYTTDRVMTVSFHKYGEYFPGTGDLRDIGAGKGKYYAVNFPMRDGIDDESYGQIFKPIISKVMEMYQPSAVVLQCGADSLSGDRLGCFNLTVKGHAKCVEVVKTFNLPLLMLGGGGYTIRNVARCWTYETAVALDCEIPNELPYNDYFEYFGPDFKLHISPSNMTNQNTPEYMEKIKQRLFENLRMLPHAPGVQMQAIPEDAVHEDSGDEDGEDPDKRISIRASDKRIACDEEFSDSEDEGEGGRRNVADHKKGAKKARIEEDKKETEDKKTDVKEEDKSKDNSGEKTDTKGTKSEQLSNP
For data set [8], the target named is T1, HDAC8 (Homo sapiens, UniProt Q9BY41).
T1 sequence (Q9BY41 1-377): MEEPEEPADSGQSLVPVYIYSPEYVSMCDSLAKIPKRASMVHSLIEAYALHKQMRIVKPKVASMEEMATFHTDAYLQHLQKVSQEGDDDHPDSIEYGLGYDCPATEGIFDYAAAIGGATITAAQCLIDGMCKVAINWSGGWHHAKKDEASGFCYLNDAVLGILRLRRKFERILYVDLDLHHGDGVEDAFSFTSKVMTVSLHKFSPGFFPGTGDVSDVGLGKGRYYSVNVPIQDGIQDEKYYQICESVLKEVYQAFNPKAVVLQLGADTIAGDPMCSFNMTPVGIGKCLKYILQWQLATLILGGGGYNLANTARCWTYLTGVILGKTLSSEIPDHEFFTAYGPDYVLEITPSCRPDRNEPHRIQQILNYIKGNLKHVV
The data set is described as above. Particulars: compared with IC50 for HDACs 1-3.

Data set [9] has as its system tumor. The data set can be described thus: In vivo tumor growth inhibition study. From the text:
Although the distribution effect of these compounds is similar, there is a notable difference in drug exposure of ˜30 percent for the peptide isostere.

In the case of `CC(C)C1NC(=O)[C@]2(C)CSC(=N2)c2nc(sc2-c2ccc(CNC(=O)CC[C@H](NC(=O)c3ccc(NCc4cnc5nc(N)[nH]c(=O)c5n4)cc3)C(=O)O)cc2)CNC(=O)CC(/C=C/CCS)NC1=O` (some centres unmarked), the “solubility (solvents)” value in data set [1] (FIG. 10 legend) is given as “only soluble in DMSO”.
For `CCCCCCCC(=O)SCC/C=C/C1CC(=O)NCc2nc(c(-c3ccc(CNC(=O)CC[C@H](NC(=O)c4ccc(NCc5cnc6nc(N)[nH]c(=O)c6n5)cc4)C(=O)O)cc3)s2)C2=N[C@@](C)(CS2)C(=O)NC(C(C)C)C(=O)N1` (some centres unmarked), the “solubility (solvents)” value in data set [1] was “soluble in mixture of CH2Cl2-MeOH, or DMSO”.
With `CCCCCCCC(=O)SCC/C=C/C1CC(=O)NCc2nc(c(-c3ccc(COC(=O)CC[C@H](NC(=O)c4ccc(NCc5cnc6nc(N)[nH]c(=O)c6n5)cc4)C(=O)O)cc3)s2)C2=N[C@@](C)(CS2)C(=O)NC(C(C)C)C(=O)N1` (some centres unmarked), the cell viability entry in [2] and in [3] was “loss of cellular viability” each time. In data set [1] (FIG. 10 legend), the “solubility (solvents)” value was “soluble in MeOH, CHCl3, DMSO”.
Regarding `CC(C)[C@@H]1NC(=O)[C@]2(C)CSC(=N2)c2nc(sc2-c2ccc(CNC(=O)CC[C@H](NC(=O)c3ccc(NCc4cnc5nc(N)[nH]c(=O)c5n4)cc3)C(=O)O)cc2)CNC(=O)CC(/C=C/CCS)NC1=O` (some centres unmarked) [Compound 14], in data set [1] (crude product), the “solubility in organic solvent” value is on record as “very poor” and the solubility in water result is on record as “not soluble in water”.
For `CC(C)[C@@H]1NC(=O)[C@]2(C)CSC(=N2)c2nc(sc2-c2ccc(CNC(=O)CCCCCNC(=O)CCCCCNC(=O)CCCCC3SC[C@@H]4NC(=O)N[C@H]34)cc2)CNC(=O)CC(/C=C/CCS)OC1=O` (some centres unmarked) [Largazole-Biotin], the biochemical selectivity entry in [4] is on record as “compares favorably to free Largazole-thiol”. Besides, in data set [5], the “affinity precipitation of HDACs by immunoblot” value is given as “affinity precipitation of HDACs1, 2 & 3”.
Consider `CCCCCCCC(=O)SCC/C=C/[C@@H]1CC(=O)NCc2nc(cs2)C2=N[C@@](C)(CS2)C(=O)N[C@@H](C(C)C)C(=O)O1` [Largazole], for which the IC50 in data set [6] and in data set [7] was less than 20 nM throughout. In addition, in data set [8], the “IC50 HDAC8” value is recorded as “much higher”. The same molecule yielded a tumor growth inhibition in data set [9] of 34%.
largazole thiol: in data set [9], the tumor growth inhibition was found to be 44%.

The term IC50 denotes the concentration that inhibits the measured activity by half. Read a low IC50 as higher potency.
